pIC50: −log10 of the molar value. ≈ marks a conversion by molar mass, not a printed value. Entries after “also recorded” stand apart in the source; their conditions may differ. Where two headings read alike, the source gives them in different places.
Legend:
[1] = cited from earlier work
DPAGT1 [2] = settings: cited from earlier work
[3] = tested on: normal cells / cancer cells; settings: selected solid cancer cell lines; ref [10]; cited from earlier work
MraY/MurX = settings: cited from earlier work
[4] = tested on: cancer and healthy cell lines; test: Cytotoxicity across cell-line panel; type: cell-based
HPNE = test: MTT cytotoxicity assay, HPNE; type: cell-based; settings: read-out: IC50 HPNE
[5] = tested on: Myocobacterium tuberculosis H37Rv, Mycobacterium avium 2285, Mycobacterium smegmatis (ATCC607); test: Antimycobacterial activity; type: cell-based, Mycobacterium spp.
KB = test: MTT cytotoxicity assay, KB; type: cell-based, human; settings: read-out: IC50 KB, 72h
DPAGT1 (Human) = DPAGT1 (Human) (Homo sapiens, UniProt Q9H3H5); test: DPAGT1 assay; type: biochemical
DPAGT1 (Human), sequence (Q9H3H5 whole entry): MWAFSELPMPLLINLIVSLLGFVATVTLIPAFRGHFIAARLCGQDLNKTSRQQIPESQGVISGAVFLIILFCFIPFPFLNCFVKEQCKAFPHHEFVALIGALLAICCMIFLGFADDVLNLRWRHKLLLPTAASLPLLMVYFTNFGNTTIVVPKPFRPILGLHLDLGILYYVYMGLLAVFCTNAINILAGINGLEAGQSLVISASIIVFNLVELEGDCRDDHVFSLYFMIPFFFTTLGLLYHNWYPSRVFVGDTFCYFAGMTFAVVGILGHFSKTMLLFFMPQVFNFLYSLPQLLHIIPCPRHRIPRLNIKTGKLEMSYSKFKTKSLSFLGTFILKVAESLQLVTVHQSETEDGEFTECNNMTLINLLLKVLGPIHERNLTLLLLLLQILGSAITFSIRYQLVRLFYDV

PANC-1 = test: MTT cytotoxicity assay, PANC-1; type: cell-based, human; settings: read-out: IC50 PANC-1, 72h
DLD-1 = test: MTT cytotoxicity assay, DLD-1; type: cell-based; settings: read-out: IC50 DLD-1, 72h
DPAGT1 gene = test: RT-qPCR of DPAGT1 gene expression in PD002; type: cell-based, human; settings: 10 μM, 24h at 37 °C
PD002 [6] = test: Scratch; type: cell-based, human; settings: PD002, 24h, 0.2 μM; untreated 63%
Capan-1 = test: MTT cytotoxicity assay, Capan-1; type: cell-based, human; settings: read-out: IC50 Capan-1, 72h
Vero = test: MTT cytotoxicity assay, Vero; type: cell-based, Cercopithecus aethiops; settings: read-out: IC50 Vero, 72h, normal kidney cell
SiHa [7] = test: MTT cytotoxicity assay, SiHa; type: cell-based, human; settings: read-out: IC50 SiHa, 72h
PD002 [8] = test: MTT cytotoxicity assay, PD002; type: cell-based, human; settings: read-out: IC50 PD002
[9] = target: MraY (Hydrogenivirga sp.) (Hydrogenivirga sp. 128-5-R1-1, UniProt Z9Y2G8N0L0); test: MraY assay; type: biochemical; settings: read-out: IC50 MraY (Hydrogenivirga sp.)
MraY (Hydrogenivirga sp.), sequence (Z9Y2G8N0L0 7-365 limits assumed): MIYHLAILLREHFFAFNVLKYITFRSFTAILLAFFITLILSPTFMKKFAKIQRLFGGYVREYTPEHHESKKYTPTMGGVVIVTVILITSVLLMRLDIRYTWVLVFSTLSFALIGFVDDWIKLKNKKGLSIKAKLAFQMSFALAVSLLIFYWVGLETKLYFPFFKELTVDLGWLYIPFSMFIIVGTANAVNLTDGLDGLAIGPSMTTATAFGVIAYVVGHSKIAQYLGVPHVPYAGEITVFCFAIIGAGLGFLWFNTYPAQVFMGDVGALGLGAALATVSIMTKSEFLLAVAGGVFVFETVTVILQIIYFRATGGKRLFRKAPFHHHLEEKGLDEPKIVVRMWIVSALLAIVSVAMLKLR

L1210 = test: MTT cytotoxicity assay, L1210; type: cell-based, mouse; settings: read-out: IC50 L1210, 72h
HCT-116 [10] = test: MTT cytotoxicity assay, HCT-116; type: cell-based; settings: read-out: IC50 HCT-116, 72h
WecA (E. coli) = WecA (E. coli) (Escherichia coli, UniProt P0AC78); test: WecA assay; settings: read-out: IC50 WecA (E. coli)
WecA (E. coli), sequence (P0AC78 whole entry): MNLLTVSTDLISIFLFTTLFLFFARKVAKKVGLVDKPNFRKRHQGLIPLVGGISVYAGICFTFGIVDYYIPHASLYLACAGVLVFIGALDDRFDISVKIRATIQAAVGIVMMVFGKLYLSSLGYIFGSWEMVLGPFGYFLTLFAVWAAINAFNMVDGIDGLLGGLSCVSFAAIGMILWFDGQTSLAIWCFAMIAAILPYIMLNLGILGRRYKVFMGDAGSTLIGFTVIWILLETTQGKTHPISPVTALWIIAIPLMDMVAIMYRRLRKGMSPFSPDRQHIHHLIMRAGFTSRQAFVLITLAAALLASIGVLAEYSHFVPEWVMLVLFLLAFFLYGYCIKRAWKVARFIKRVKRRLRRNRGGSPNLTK

AsPC-1 = test: MTT cytotoxicity assay, AsPC-1; type: cell-based, human; settings: read-out: IC50 AsPC-1, 72h
AglH (M. jannaschii) = AglH (M. jannaschii) (Methanocaldococcus jannaschii, UniProt Q58513); test: AglH assay; type: biochemical; settings: read-out: IC50 AglH (M. jannaschii)
AglH (M. jannaschii), sequence (Q58513 whole entry): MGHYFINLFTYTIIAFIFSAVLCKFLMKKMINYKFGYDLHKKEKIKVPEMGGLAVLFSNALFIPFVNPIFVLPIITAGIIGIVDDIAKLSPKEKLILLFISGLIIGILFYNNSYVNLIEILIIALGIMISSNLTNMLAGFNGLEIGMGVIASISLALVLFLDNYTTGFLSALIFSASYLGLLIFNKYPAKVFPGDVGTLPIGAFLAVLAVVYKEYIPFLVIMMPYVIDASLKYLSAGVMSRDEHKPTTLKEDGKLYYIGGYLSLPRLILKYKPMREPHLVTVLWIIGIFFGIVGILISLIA

WecA = settings: read-out: IC50 WecA; ref [9],[10]; cited from earlier work
PD002 [11] = test: Checkerboard synergy of CPPB with paclitaxel; type: cell-based, human; settings: for CA and CB, concentration in combination: growth–no growth interface
[12] = tested on: MraY, WecA, AglH, and DPAGT1; test: Phosphotransferase panel; type: biochemical; settings: at 50 μM concentration
PD002 [13] = test: Kinetic proliferation assay; type: cell-based, human
DPAGT1 [14] = test: DPAGT1 protein expression; type: cell-based
Snail = Snail expression; type: cell-based; settings: 0.05 and 2.0 μM
E-Cadherin = E-Cadherin expression; type: cell-based
HCT-116 [15] = test: Scratch; type: cell-based; settings: scratch assay
PD002 [16] = test: Cell migration assay using transwell; type: cell-based, human; settings: 0.1 μM, 18h; vs tunicamycin and gemcitabine at 0.1 μM
SiHa [17] = test: Scratch; type: cell-based, human; settings: scratch assay, 0.2 μM

## NC[C@H]1O[C@@H](O[C@H]([C@H]2O[C@@H](n3ccc(=O)[nH]c3=O)[C@H](O)[C@@H]2O)[C@H](NCCCC(=O)NCc2ccc(N3CCC(Oc4ccc(OC(F)(F)F)cc4)CC3)cc2)C(N)=O)[C@H](O)[C@@H]1O [APPB, Aminouridyl phenoxylpiperidinylbenzylbutanamide]
[1]; mouse, ref [10],[18]
  LD50: > 20 mg/kg
DPAGT1 [2]; ref [10]
  DPAGT1 inhibitory activity relative to tunicamycin: greater than 30 times
[3]
  selective cytotoxicity (IC50 normal cells / cancer cells): > 35

## CO[C@H]1[C@@H](OC)[C@H](n2ccc(=O)[nH]c2=O)O[C@@H]1[C@@H](O[C@H]1OC(C(=O)N[C@H]2CCCCNC2=O)=C[C@H](O)[C@@H]1O)C(N)=O [OM-CAP, O-Methyl capuramycin]
MraY/MurX; read-out: IC50 MraY, previously identified, ref [9]
  pIC50: < 4.30
[4]; at 50 μM
  cytotoxicity against healthy cells (e.g., Vero and HPNE cells): does not show cytotoxicity
HPNE; HPNE, 72 h
  pIC50: < 4.30

## CO[C@@H]1[C@H](O)[C@@H]([C@@H](O[C@H]2OC(C(=O)NCc3ccc(N4CCC(Oc5ccc(OC(F)(F)F)cc5)CC4)cc3)=C[C@H](O)[C@@H]2O)C(N)=O)O[C@H]1n1ccc(=O)[nH]c1=O
[5]; at 50 μg/mL
  growth inhibitory activity against Mycobacterium spp.: did not show growth inhibitory activity
[4]; at 50 μM
  antiproliferative activity against L1210, HPNE, and Vero: did not show antiproliferative activity

## CO[C@H]1[C@@H](O)[C@H](n2ccc(=O)[nH]c2=O)O[C@@H]1[C@@H](O[C@H]1OC(C(=O)N[C@H]2CCCCNC2=O)=C[C@H](O)[C@@H]1O)C(N)=O [CAP, Capuramycin, reference compound]
HPNE; HPNE, 72 h
  pIC50: < 4.30

## Tunicamycin
KB
  pIC50: 5.60
DPAGT1 (Human); read-out: IC50 DPAGT1 (Human)
  pIC50: 5.82
[1]; mice, IP, ref [18],[19]
  LD50: 2.0 mg/kg
  LD100: 3.5 mg/kg
[1]; mouse, ref [10],[18]
  LD50: 2.0 mg/kg
PANC-1
  pIC50: 5.82
DLD-1
  pIC50: 5.90
DPAGT1 gene
  PD002 killed: 100%
PD002 [6]
  wound-healing rate: 35%
Capan-1
  pIC50: 5.82
DPAGT1 [2]; read-out: IC50 DPAGT1, ref [9],[10]
  pIC50: 5.82
Vero
  pIC50: 6.11
SiHa [7]
  pIC50: 6.04
PD002 [8]; MTT assay, 72h
  pIC50: 5.82
[9]
  pIC50: 5.54
L1210
  pIC50: 5.77
HCT-116 [10]
  pIC50: 6.04
WecA (E. coli)
  pIC50: 6.82
AsPC-1
  pIC50: 6.35
MraY/MurX; read-out: IC50 MraY/MurX, ref [9],[10]
  pIC50: 5.54
AglH (M. jannaschii)
  pIC50: 4.88
WecA
  pIC50: 6.82
HPNE; MTT assay, 72h, normal pancreatic ductal cell
  pIC50: 5.12

## CC(=O)O[C@H]1C(=O)[C@@]2(C)[C@H]([C@H](OC(=O)c3ccccc3)[C@]3(O)C[C@H](OC(=O)[C@H](O)[C@@H](NC(=O)c4ccccc4)c4ccccc4)C(C)=C1C3(C)C)[C@]1(OC(C)=O)CO[C@@H]1C[C@@H]2O [Paclitaxel, reference compound]
PD002 [11]; Table 3 entry 1
  CA and CB, concentration in combination: 0.63 µM
PD002 [11]; Table 3 entry 2
  CA and CB, concentration in combination: 0.16 µM
PD002 [11]; Table 3 entry 3
  CA and CB, concentration in combination: 0.0049 µM
PD002 [11]; Table 3 entry 4
  CA and CB, concentration in combination: 0.020 µM
PD002 [11]; Table 3 entry 6
  CA and CB, concentration in combination: 0.020 µM
PD002 [8]; Homo sapiens, PD002, 72 h
  pIC50: 5.90

## CO[C@@H]1[C@H](O)[C@@H]([C@@H](O[C@H]2OC(CNCc3ccc(N4CCC(Oc5ccc(OC(F)(F)F)cc5)CC4)cc3)=C[C@H](O)[C@@H]2O)C(N)=O)O[C@H]1n1ccc(=O)[nH]c1=O [I-CPPA, (2R)-2-(((2S,3S,4S)-3,4-Dihydroxy-6-(((4-(4-(4-(trifluoromethoxy)phenoxy)piperidin-1-yl)benzyl)amino)methyl)-3,4-dihydro-2H-pyran-2-yl)oxy)-2-((2S,5R)-5-(2,4-dioxo-3,4-dihydropyrimidin-1(2H)-yl)-3-hydroxy-4-methoxytetrahydrofuran-2-yl)acetamide]
[12]
  inhibition of all phosphotransferases tested in Table 1: did not inhibit

## CO[C@H]1[C@@H](O)[C@H](n2ccc(=O)[nH]c2=O)O[C@@H]1[C@@H](O[C@H]1OC(CNCc2ccc(N3CCC(Oc4ccc(OC(F)(F)F)cc4)CC3)cc2)=C[C@H](O)[C@@H]1O)C(N)=O [CPPA, (2R)-2-(((2S,3S,4S)-3,4-Dihydroxy-6-(((4-(4-(4-(trifluoromethoxy)phenoxy)piperidin-1-yl)benzyl)amino)methyl)-3,4-dihydro-2H-pyran-2-yl)oxy)-2-((2S,5R)-5-(2,4-dioxo-3,4-dihydropyrimidin-1(2H)-yl)-4-hydroxy-3-methoxytetrahydrofuran-2-yl)acetamide]
[12]
  inhibition of all phosphotransferases tested in Table 1: did not inhibit

## CO[C@H]1[C@@H](O)[C@H](n2ccc(=O)[nH]c2=O)O[C@@H]1[C@@H](O[C@H]1OC(C(=O)NCc2ccc(N3CCC(Oc4ccc(OC(F)(F)F)cc4)CC3)cc2)=C[C@H](O)[C@@H]1O)C(N)=O [CPPB, (2S,3S,4S)-2-((1R)-2-Amino-1-((2S,5R)-5-(2,4-dioxo-3,4-dihydropyrimidin-1(2H)-yl)-4-hydroxy-3-methoxytetrahydrofuran-2-yl)-2-oxoethoxy)-3,4-dihydroxy-N-(4-(4-(4-(trifluoromethoxy)phenoxy)piperidin-1-yl)benzyl)-3,4-dihydro-2H-pyran-6-carboxamide]
DPAGT1 (Human)
  DPAGT1 inhibitory activity relative to tunicamycin: ~ 7.5 times
PD002 [11]; Table 3 entry 1
  CA and CB, concentration in combination: 0.10 µM
PD002 [11]; Table 3 entry 2
  CA and CB, concentration in combination: 0.10 µM
PD002 [11]; Table 3 entry 3
  CA and CB, concentration in combination: 0.20 µM
PD002 [11]; Table 3 entry 4
  CA and CB, concentration in combination: 0.20 µM
PD002 [11]; Table 3 entry 5
  CA and CB, concentration in combination: 0.20 µM
PD002 [11]; Table 3 entry 6
  CA and CB, concentration in combination: 2.0 µM
PD002 [11]; Table 3 entry 7
  CA and CB, concentration in combination: 2.0 µM
PD002 [11]; Table 3 entry 8
  CA and CB, concentration in combination: 2.0 µM
PD002 [11]; checkerboard
  synergistic effect with paclitaxel against PD002: strong synergistic effects
PD002 [6]
  wound-healing rate: approximately 20%
PD002 [13]; CPPB 50 μM, same as time 0h, control (PBS) ca. 70%
  phase area confluent of PD002 culture after 72h: 10–13%
PD002 [13]; PD002, CPPB 0.2–20 μM
  cell proliferation inhibited at time 72h: ca. 20%
PD002 [13]; demonstrated by IncuCyte live cell analyses and immunofluorescence assays
  cell permeability: cell-permeable
DPAGT1 [14]; 0.2 μM
  DPAGT1 expression in pancreatic cancer cell lines: apparently inhibited
DPAGT1 [14]; Western blot, CPPB 0.1–20 μM
  DPAGT1 expression levels of HCT-116 remaining: 20–90%
Snail
  Snail expression level in HCT-116: not noticeably changed
E-Cadherin; Western blot, 0–2.0 μM
  E-Cadherin expression level of PANC-1: the same expression level
E-Cadherin; immunofluorescence, 0.05–2.0 μM
  E-Cadherin expression levels of PD002, PANC-1, and HCT-116: not changed significantly
HCT-116 [15]
  inhibition of cell migration of HCT-116: not inhibited; also recorded: did not inhibit migration
[5]
  MIC: 6.25 to 12.5 µg/mL (≈ 7.74 to 15.5 µM)
[4]; MTT assays, 20 μM
  viability of all pancreatic cancers tested: remained viable
[4]; at 10 μM or higher concentrations
  cytotoxicity against a series of cancer and healthy cell lines: not cytotoxic
[4]; at 50 μM
  antiproliferative activity against L1210, HPNE, and Vero: did not show antiproliferative activity
[4]; read-out: IC50 growth inhibition of solid cancer cell lines (span)
  pIC50: 4.35 to 4.82
HPNE; HPNE, 72 h
  pIC50: < 4.30
PD002 [16]
  inhibition of cell migration of PD002 (Boyden chamber): inhibited on a higher level
SiHa [17]
  inhibition of migration of SiHa: strongly inhibited migration
